Measurements as given in article PMC10905675, “INX-315, a Selective CDK2 Inhibitor, Induces Cell Cycle Arrest and Senescence in Solid Tumors” (Cancer Discovery, 2023).

Key:
Assay in all cases: SelectScreen LanthaScreen Binding
Details in all cases: INX-0315 at 100nM
STK39 (STLK3) = biological target: T1, STK39 (STLK3) (Homo sapiens, UniProt Q9UEW8)
T1 construct: purchased Thermo Fisher Scientific SelectScreen (plus Nanosyn / Reaction Biology for CDK/cyclin lines)
Procedure, shortened: (§1)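 Screening in two stages: one concentration of inhibitor (100 nmol/L; 1% DMSO), then a ten-point series from 1 µmol/L to 0.0495 nmol/L. Conditions were those fixed in advance by the provider.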

NLK = biological target: T2, NLK (Homo sapiens, UniProt Q9UBE8)
T2 construct: purchased Thermo Fisher Scientific SelectScreen (plus Nanosyn / Reaction Biology for CDK/cyclin lines)
Procedure, shortened: as §1

ACVR1 (ALK2) = biological target: T3, ACVR1 (ALK2) (Homo sapiens, UniProt Q04771)
T3 construct: purchased Thermo Fisher Scientific SelectScreen (plus Nanosyn / Reaction Biology for CDK/cyclin lines)
Procedure, shortened: as §1

IRAK3 = biological target: T4, IRAK3 (Homo sapiens, UniProt Q9Y616)
T4 construct: purchased Thermo Fisher Scientific SelectScreen (plus Nanosyn / Reaction Biology for CDK/cyclin lines)
Procedure, shortened: as §1

PRKACB (PRKAC beta) = biological target: T5, PRKACB (PRKAC beta) (Homo sapiens, UniProt P22694)
T5 construct: purchased Thermo Fisher Scientific SelectScreen (plus Nanosyn / Reaction Biology for CDK/cyclin lines)
Procedure, shortened: as §1

TEK (TIE2) Y1108F = biological target: T6, TEK (TIE2) Y1108F (Homo sapiens, UniProt Q02763, Y1108F)
T6 construct: purchased Thermo Fisher Scientific SelectScreen (plus Nanosyn / Reaction Biology for CDK/cyclin lines)
Procedure, shortened: as §1

MAP2K2 (MEK2) = biological target: T7, MAP2K2 (MEK2) (Homo sapiens, UniProt P36507)
T7 construct: purchased Thermo Fisher Scientific SelectScreen (plus Nanosyn / Reaction Biology for CDK/cyclin lines)
Procedure, shortened: as §1

STK17B (DRAK2) = biological target: T8, STK17B (DRAK2) (Homo sapiens, UniProt O94768)
T8 construct: purchased Thermo Fisher Scientific SelectScreen (plus Nanosyn / Reaction Biology for CDK/cyclin lines)
Procedure, shortened: as §1

WNK2 = biological target: T9, WNK2 (Homo sapiens, UniProt Q9Y3S1)
T9 construct: purchased Thermo Fisher Scientific SelectScreen (plus Nanosyn / Reaction Biology for CDK/cyclin lines)
Procedure, shortened: as §1

MAPK15 (ERK7) = biological target: T10, MAPK15 (ERK7) (Homo sapiens, UniProt Q8TD08)
T10 construct: purchased Thermo Fisher Scientific SelectScreen (plus Nanosyn / Reaction Biology for CDK/cyclin lines)
Procedure, shortened: as §1

AMPK (A1/B2/G1) = biological target: T11, AMPK (A1/B2/G1) (Homo sapiens, UniProt Q13131)
T11 construct: purchased Thermo Fisher Scientific SelectScreen (plus Nanosyn / Reaction Biology for CDK/cyclin lines)
Procedure, shortened: as §1

MAP3K11 (MLK3) = biological target: T12, MAP3K11 (MLK3) (Homo sapiens, UniProt Q16584)
T12 construct: purchased Thermo Fisher Scientific SelectScreen (plus Nanosyn / Reaction Biology for CDK/cyclin lines)
Procedure, shortened: as §1

MASTL = biological target: T13, MASTL (Homo sapiens, UniProt Q96GX5)
T13 construct: purchased Thermo Fisher Scientific SelectScreen (plus Nanosyn / Reaction Biology for CDK/cyclin lines)
Procedure, shortened: as §1

DDR2 T654M = biological target: T14, DDR2 T654M (Homo sapiens, UniProt Q16832, T654M)
T14 construct: purchased Thermo Fisher Scientific SelectScreen (plus Nanosyn / Reaction Biology for CDK/cyclin lines)
Procedure, shortened: as §1

TESK1 = biological target: T15, TESK1 (Homo sapiens, UniProt Q15569)
T15 construct: purchased Thermo Fisher Scientific SelectScreen (plus Nanosyn / Reaction Biology for CDK/cyclin lines)
Procedure, shortened: as §1

PLK4 = biological target: T16, PLK4 (Homo sapiens, UniProt O00444)
T16 construct: purchased Thermo Fisher Scientific SelectScreen (plus Nanosyn / Reaction Biology for CDK/cyclin lines)
Procedure, shortened: as §1

ACVR1 (ALK2) R206H = biological target: T17, ACVR1 (ALK2) R206H (Homo sapiens, UniProt Q04771, R206H)
T17 construct: purchased Thermo Fisher Scientific SelectScreen (plus Nanosyn / Reaction Biology for CDK/cyclin lines)
Procedure, shortened: as §1

CDK14 (PFTK1)/cyclin Y = biological target: T18, CDK14 (PFTK1)/cyclin Y (Homo sapiens, UniProt O94921)
T18 construct: purchased Thermo Fisher Scientific SelectScreen (plus Nanosyn / Reaction Biology for CDK/cyclin lines)
Procedure, shortened: as §1

EGFR (ErbB1) d746-750 = biological target: T19, EGFR (ErbB1) d746-750 (Homo sapiens, UniProt P00533, DEL746-750)
T19 construct: purchased Thermo Fisher Scientific SelectScreen (plus Nanosyn / Reaction Biology for CDK/cyclin lines)
Procedure, shortened: as §1

PRKACG (PRKAC gamma) = biological target: T20, PRKACG (PRKAC gamma) (Homo sapiens, UniProt P22612)
T20 construct: purchased Thermo Fisher Scientific SelectScreen (plus Nanosyn / Reaction Biology for CDK/cyclin lines)
Procedure, shortened: as §1

KIT T670E = biological target: T21, KIT T670E (Homo sapiens, UniProt P10721, T670E)
T21 construct: purchased Thermo Fisher Scientific SelectScreen (plus Nanosyn / Reaction Biology for CDK/cyclin lines)
Procedure, shortened: as §1

BMPR2 = biological target: T22, BMPR2 (Homo sapiens, UniProt Q13873)
T22 construct: purchased Thermo Fisher Scientific SelectScreen (plus Nanosyn / Reaction Biology for CDK/cyclin lines)
Procedure, shortened: as §1

MAP2K5 (MEK5) = biological target: T23, MAP2K5 (MEK5) (Homo sapiens, UniProt Q13163)
T23 construct: purchased Thermo Fisher Scientific SelectScreen (plus Nanosyn / Reaction Biology for CDK/cyclin lines)
Procedure, shortened: as §1

MAP2K4 (MEK4) = biological target: T24, MAP2K4 (MEK4) (Homo sapiens, UniProt P45985)
T24 construct: purchased Thermo Fisher Scientific SelectScreen (plus Nanosyn / Reaction Biology for CDK/cyclin lines)
Procedure, shortened: as §1

CDK9 (Inactive) = biological target: T25, CDK9 (Inactive) (Homo sapiens, UniProt P50750)
T25 construct: purchased Thermo Fisher Scientific SelectScreen (plus Nanosyn / Reaction Biology for CDK/cyclin lines)
Procedure, shortened: as §1

DDR2 = biological target: T26, DDR2 (Homo sapiens, UniProt Q16832)
T26 construct: purchased Thermo Fisher Scientific SelectScreen (plus Nanosyn / Reaction Biology for CDK/cyclin lines)
Procedure, shortened: as §1

MET D1228H = biological target: T27, MET D1228H (Homo sapiens, UniProt P08581, D1228H)
T27 construct: purchased Thermo Fisher Scientific SelectScreen (plus Nanosyn / Reaction Biology for CDK/cyclin lines)
Procedure, shortened: as §1

MAP2K1 (MEK1) = biological target: T28, MAP2K1 (MEK1) (Homo sapiens, UniProt Q02750)
T28 construct: purchased Thermo Fisher Scientific SelectScreen (plus Nanosyn / Reaction Biology for CDK/cyclin lines)
Procedure, shortened: as §1

ALK R1275Q = biological target: T29, ALK R1275Q (Homo sapiens, UniProt Q9UM73, R1275Q)
T29 construct: purchased Thermo Fisher Scientific SelectScreen (plus Nanosyn / Reaction Biology for CDK/cyclin lines)
Procedure, shortened: as §1

CDK11/cyclin C = biological target: T30, CDK11/cyclin C (Homo sapiens, UniProt Q9BWU1)
T30 construct: purchased Thermo Fisher Scientific SelectScreen (plus Nanosyn / Reaction Biology for CDK/cyclin lines)
Procedure, shortened: as §1

FGFR3 K650M = biological target: T31, FGFR3 K650M (Homo sapiens, UniProt P22607, K650M)
T31 construct: purchased Thermo Fisher Scientific SelectScreen (plus Nanosyn / Reaction Biology for CDK/cyclin lines)
Procedure, shortened: as §1

STK17A (DRAK1) = biological target: T32, STK17A (DRAK1) (Homo sapiens, UniProt Q9UEE5)
T32 construct: purchased Thermo Fisher Scientific SelectScreen (plus Nanosyn / Reaction Biology for CDK/cyclin lines)
Procedure, shortened: as §1

EIF2AK2 (PKR) = biological target: T33, EIF2AK2 (PKR) (Homo sapiens, UniProt P19525)
T33 construct: purchased Thermo Fisher Scientific SelectScreen (plus Nanosyn / Reaction Biology for CDK/cyclin lines)
Procedure, shortened: as §1

KIT V559D T670I = biological target: T34, KIT V559D T670I (Homo sapiens, UniProt P10721, T670I/V559D)
T34 construct: purchased Thermo Fisher Scientific SelectScreen (plus Nanosyn / Reaction Biology for CDK/cyclin lines)
Procedure, shortened: as §1

TEK (TIE2) R849W = biological target: T35, TEK (TIE2) R849W (Homo sapiens, UniProt Q02763, R849W)
T35 construct: purchased Thermo Fisher Scientific SelectScreen (plus Nanosyn / Reaction Biology for CDK/cyclin lines)
Procedure, shortened: as §1

STK16 (PKL12) = biological target: T36, STK16 (PKL12) (Homo sapiens, UniProt O75716)
T36 construct: purchased Thermo Fisher Scientific SelectScreen (plus Nanosyn / Reaction Biology for CDK/cyclin lines)
Procedure, shortened: as §1

AMPK (A1/B1/G2) = biological target: T37, AMPK (A1/B1/G2) (Homo sapiens, UniProt Q13131)
T37 construct: purchased Thermo Fisher Scientific SelectScreen (plus Nanosyn / Reaction Biology for CDK/cyclin lines)
Procedure, shortened: as §1

T18 sequence (O94921 whole entry): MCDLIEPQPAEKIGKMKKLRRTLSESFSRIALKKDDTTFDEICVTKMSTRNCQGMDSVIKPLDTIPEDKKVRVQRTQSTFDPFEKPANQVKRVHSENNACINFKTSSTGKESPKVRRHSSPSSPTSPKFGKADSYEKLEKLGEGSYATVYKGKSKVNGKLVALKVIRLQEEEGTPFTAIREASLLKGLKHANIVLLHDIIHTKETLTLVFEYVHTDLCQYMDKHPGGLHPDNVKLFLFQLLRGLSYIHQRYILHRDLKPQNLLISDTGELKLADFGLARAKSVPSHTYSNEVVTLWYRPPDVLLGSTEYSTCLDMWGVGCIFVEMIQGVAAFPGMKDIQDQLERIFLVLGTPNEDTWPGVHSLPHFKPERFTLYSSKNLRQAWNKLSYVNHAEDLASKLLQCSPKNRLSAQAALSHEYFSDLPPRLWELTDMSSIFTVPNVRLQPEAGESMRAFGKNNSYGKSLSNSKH
T18 sequence (Q8ND76 whole entry partner): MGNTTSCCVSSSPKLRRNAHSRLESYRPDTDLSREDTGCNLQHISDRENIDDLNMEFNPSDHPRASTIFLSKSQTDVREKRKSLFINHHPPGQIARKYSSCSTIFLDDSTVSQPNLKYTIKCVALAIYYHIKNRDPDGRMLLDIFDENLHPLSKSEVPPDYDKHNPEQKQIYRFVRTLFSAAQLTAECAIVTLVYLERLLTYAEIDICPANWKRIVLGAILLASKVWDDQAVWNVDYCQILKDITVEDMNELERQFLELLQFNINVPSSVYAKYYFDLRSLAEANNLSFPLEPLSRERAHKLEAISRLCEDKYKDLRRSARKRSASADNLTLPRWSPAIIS
T13 sequence (Q96GX5 whole entry): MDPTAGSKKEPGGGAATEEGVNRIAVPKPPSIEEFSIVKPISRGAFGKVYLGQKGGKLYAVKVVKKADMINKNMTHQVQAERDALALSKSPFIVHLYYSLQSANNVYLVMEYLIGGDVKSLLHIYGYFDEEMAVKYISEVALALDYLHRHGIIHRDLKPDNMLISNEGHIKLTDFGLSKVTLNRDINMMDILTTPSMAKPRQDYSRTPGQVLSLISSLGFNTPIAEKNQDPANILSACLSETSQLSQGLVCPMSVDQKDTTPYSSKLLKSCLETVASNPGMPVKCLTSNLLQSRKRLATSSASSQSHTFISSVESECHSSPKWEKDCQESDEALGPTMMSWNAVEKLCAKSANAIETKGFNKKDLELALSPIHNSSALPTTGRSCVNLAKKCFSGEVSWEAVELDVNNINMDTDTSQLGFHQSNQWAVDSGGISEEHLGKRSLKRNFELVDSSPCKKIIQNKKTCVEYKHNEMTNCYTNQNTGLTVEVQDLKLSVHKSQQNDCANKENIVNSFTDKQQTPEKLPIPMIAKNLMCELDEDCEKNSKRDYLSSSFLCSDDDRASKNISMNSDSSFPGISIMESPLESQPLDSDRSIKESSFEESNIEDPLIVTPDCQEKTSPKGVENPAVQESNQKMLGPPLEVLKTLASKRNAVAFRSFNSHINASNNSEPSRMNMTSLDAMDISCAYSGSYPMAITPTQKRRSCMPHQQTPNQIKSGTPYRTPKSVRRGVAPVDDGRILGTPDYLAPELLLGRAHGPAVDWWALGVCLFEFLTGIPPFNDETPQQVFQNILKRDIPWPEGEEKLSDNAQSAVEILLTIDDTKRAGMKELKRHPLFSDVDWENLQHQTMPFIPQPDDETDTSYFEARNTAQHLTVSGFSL
T9 sequence (Q9Y3S1 whole entry): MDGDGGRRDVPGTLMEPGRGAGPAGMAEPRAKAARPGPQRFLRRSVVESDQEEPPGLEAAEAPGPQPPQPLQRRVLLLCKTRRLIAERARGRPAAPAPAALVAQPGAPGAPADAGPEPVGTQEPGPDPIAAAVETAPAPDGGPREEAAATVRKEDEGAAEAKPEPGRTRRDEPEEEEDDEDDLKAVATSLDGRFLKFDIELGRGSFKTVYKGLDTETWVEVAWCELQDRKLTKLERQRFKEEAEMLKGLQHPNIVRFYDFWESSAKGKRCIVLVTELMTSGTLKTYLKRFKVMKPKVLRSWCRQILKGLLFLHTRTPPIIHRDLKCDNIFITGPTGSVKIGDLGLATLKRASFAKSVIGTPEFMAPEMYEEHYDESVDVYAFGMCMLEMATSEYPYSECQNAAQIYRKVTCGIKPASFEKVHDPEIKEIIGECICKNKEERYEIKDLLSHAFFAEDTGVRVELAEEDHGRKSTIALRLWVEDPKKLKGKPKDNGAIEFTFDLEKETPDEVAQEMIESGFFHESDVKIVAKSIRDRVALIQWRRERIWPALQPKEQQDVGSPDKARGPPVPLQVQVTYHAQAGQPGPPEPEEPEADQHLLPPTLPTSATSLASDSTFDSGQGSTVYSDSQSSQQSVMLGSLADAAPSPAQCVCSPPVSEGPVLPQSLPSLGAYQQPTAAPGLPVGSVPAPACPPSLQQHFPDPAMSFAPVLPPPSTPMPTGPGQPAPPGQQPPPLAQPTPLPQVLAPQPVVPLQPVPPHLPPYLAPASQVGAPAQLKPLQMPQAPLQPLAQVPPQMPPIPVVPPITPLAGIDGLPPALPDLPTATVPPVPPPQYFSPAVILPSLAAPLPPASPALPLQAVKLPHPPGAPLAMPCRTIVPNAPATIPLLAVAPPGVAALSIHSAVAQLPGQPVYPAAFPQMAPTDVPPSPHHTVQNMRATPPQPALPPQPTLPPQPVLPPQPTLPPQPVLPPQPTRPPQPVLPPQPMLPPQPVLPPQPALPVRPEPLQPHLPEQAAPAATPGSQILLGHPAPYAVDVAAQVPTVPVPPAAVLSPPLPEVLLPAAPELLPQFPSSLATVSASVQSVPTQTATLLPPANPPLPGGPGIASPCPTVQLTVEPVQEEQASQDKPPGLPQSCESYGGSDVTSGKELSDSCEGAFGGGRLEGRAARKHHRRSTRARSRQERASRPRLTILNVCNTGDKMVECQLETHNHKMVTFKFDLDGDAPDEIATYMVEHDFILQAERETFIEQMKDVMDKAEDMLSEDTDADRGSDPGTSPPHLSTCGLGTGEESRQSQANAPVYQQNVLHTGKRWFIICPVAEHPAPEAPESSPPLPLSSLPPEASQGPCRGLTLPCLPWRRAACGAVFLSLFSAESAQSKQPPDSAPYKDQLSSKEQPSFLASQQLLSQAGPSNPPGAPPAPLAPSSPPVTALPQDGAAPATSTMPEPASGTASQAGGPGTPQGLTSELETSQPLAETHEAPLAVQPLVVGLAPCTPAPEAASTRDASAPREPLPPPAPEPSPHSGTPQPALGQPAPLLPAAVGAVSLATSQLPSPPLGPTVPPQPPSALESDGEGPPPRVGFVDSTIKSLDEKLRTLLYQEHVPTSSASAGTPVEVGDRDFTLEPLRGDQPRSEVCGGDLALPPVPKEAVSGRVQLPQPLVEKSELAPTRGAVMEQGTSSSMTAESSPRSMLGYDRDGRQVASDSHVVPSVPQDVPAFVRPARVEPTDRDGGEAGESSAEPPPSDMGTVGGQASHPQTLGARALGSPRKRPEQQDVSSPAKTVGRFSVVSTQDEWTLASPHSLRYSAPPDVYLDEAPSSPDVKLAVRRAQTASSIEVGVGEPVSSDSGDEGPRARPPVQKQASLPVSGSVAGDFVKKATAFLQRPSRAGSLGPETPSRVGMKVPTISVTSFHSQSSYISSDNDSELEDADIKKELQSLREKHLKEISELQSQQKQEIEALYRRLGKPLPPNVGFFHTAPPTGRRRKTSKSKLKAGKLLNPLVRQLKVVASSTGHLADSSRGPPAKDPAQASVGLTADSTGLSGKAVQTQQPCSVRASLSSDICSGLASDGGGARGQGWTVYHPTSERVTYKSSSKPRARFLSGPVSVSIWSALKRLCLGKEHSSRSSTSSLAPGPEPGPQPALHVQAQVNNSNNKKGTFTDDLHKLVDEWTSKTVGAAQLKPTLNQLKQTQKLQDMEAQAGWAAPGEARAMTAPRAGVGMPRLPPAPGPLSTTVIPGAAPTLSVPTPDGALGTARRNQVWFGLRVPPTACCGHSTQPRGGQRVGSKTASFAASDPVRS
T30 sequence (Q9BWU1 whole entry): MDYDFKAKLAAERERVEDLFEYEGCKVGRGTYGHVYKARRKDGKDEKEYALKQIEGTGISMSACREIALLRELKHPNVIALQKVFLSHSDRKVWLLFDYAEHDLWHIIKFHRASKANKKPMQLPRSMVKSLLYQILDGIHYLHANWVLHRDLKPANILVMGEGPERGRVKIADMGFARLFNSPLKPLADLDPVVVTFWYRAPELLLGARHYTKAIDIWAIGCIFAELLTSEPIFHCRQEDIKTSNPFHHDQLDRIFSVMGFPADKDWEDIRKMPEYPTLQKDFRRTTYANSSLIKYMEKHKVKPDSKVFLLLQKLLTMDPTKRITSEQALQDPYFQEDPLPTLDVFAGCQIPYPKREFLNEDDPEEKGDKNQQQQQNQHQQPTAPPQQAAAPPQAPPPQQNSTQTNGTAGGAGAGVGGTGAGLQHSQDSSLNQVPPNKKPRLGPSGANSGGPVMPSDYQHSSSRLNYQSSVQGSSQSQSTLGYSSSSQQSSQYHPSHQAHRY
T30 sequence (P24863 whole entry partner): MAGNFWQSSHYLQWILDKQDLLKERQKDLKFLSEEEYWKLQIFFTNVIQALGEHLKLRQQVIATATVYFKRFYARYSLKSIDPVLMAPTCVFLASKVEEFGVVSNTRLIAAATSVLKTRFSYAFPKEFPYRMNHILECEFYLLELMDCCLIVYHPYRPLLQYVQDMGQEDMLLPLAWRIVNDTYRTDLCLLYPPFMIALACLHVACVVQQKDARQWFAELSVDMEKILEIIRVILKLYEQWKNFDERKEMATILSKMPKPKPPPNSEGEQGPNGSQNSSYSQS
T36 sequence (O75716 whole entry): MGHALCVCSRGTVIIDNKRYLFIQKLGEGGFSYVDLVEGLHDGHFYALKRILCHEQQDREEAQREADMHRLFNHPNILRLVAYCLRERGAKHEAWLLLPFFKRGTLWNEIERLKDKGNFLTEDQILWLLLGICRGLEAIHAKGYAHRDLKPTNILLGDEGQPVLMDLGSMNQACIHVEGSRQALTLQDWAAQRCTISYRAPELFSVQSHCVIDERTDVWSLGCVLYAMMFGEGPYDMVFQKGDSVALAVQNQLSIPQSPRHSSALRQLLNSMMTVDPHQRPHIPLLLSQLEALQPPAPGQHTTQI

NS(=O)(=O)c1ccc(Nc2ncc3cc4n(c3n2)C2(CCCCC2)C(=O)NN4)cc1 [INX-315]
inhibition at 0.1 µM (STK39 (STLK3)): 14%
inhibition at 0.1 µM (NLK): 0%
inhibition at 0.1 µM (ACVR1 (ALK2)): -5%
inhibition at 0.1 µM (IRAK3): 45%
inhibition at 0.1 µM (PRKACB (PRKAC beta)): 1%
inhibition at 0.1 µM (TEK (TIE2) Y1108F): 2%
inhibition at 0.1 µM (MAP2K2 (MEK2)): 0%
inhibition at 0.1 µM (STK17B (DRAK2)): 4%
inhibition at 0.1 µM (WNK2): -9%
inhibition at 0.1 µM (MAPK15 (ERK7)): 87%
inhibition at 0.1 µM (AMPK (A1/B2/G1)): 36%
inhibition at 0.1 µM (MAP3K11 (MLK3)): 13%
inhibition at 0.1 µM (MASTL): 0%
inhibition at 0.1 µM (DDR2 T654M): 26%
inhibition at 0.1 µM (TESK1): 2%
inhibition at 0.1 µM (PLK4): 29%
inhibition at 0.1 µM (ACVR1 (ALK2) R206H): -1%
inhibition at 0.1 µM (CDK14 (PFTK1)/cyclin Y): 24%
inhibition at 0.1 µM (EGFR (ErbB1) d746-750): 0%
inhibition at 0.1 µM (PRKACG (PRKAC gamma)): -12%
inhibition at 0.1 µM (KIT T670E): 9%
inhibition at 0.1 µM (BMPR2): 17%
inhibition at 0.1 µM (MAP2K5 (MEK5)): 27%
inhibition at 0.1 µM (MAP2K4 (MEK4)): 17%
inhibition at 0.1 µM (CDK9 (Inactive)): 44%
inhibition at 0.1 µM (DDR2): 18%
inhibition at 0.1 µM (MET D1228H): -6%
inhibition at 0.1 µM (MAP2K1 (MEK1)): 5%
inhibition at 0.1 µM (ALK R1275Q): 10%
inhibition at 0.1 µM (CDK11/cyclin C): 1%
inhibition at 0.1 µM (FGFR3 K650M): 14%
inhibition at 0.1 µM (STK17A (DRAK1)): 2%
inhibition at 0.1 µM (EIF2AK2 (PKR)): -8%
inhibition at 0.1 µM (KIT V559D T670I): 16%
inhibition at 0.1 µM (TEK (TIE2) R849W): 7%
inhibition at 0.1 µM (STK16 (PKL12)): 57%
inhibition at 0.1 µM (AMPK (A1/B1/G2)): 15%
